Our source for the IC50 values is ChEMBL document CHEMBL4028801, “A multifactorial approach to hepatobiliary transporter assessment enables improved therapeutic compound development” (Toxicol Sci, 2013).

The target of experiment [1] is T1, ATP-binding cassette sub-family C member 4 (Homo sapiens, UniProt O15439).
T1 sequence (O15439 whole entry): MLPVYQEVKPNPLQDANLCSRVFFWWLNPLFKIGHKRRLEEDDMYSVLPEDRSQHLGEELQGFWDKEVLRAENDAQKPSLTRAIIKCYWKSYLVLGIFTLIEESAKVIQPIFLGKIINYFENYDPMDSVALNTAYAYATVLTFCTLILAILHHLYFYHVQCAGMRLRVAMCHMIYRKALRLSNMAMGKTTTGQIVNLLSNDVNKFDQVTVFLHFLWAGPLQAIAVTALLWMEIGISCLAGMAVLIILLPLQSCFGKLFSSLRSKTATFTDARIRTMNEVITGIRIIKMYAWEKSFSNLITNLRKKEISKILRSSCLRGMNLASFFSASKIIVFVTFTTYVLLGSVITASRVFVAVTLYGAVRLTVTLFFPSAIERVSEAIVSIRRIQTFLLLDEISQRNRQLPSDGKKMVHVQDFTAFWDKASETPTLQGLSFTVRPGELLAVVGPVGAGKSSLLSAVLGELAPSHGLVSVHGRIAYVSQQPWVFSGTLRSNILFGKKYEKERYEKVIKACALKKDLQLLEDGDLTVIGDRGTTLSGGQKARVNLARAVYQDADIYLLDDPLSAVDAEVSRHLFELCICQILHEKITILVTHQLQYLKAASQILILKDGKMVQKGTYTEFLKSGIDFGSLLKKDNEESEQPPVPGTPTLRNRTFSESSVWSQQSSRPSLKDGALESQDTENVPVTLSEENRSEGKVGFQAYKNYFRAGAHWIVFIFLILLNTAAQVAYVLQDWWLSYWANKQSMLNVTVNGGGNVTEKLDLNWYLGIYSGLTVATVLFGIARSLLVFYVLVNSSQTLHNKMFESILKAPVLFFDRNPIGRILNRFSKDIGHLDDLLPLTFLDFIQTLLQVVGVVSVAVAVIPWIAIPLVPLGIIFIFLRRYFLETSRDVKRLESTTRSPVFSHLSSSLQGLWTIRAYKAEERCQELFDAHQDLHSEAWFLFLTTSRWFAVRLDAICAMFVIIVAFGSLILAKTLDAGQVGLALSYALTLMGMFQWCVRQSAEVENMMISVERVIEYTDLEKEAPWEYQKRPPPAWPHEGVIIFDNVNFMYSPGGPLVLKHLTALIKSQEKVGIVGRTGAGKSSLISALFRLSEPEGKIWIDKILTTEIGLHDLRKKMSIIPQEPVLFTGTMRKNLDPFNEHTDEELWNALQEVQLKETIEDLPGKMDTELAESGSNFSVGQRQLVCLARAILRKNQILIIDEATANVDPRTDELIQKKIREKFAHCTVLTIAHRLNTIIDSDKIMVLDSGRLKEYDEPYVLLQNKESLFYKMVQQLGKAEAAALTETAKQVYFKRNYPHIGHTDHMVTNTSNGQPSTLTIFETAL
In words: Inhibition of human MRP4 overexpressed in Sf9 cell membrane vesicles assessed as uptake of [3H]-estradiol-17beta-D-glucuronide in presence of ATP and GSH measured after 20 mins by membrane vesicle transport assay. It is filed as ADME, cell-based.

Another experiment concerns the target Bile salt export pump (Homo sapiens, UniProt O95342). In words: Inhibition of human BSEP overexpressed in Sf9 cell membrane vesicles assessed as uptake of [3H]-taurocholate in presence of ATP measured after 15 to 20 mins by membrane vesicle transport assay. It is filed as ADME, cell-based.
Experiment [2] concerns the target ATP-binding cassette sub-family C member 2 (Homo sapiens, UniProt Q92887). Nature of the experiment: Inhibition of human MRP2 overexpressed in Sf9 cell membrane vesicles assessed as uptake of [3H]-estradiol-17beta-D-glucuronide in presence of ATP and GSH measured after 20 mins by membrane vesicle transport assay.
For experiment [3], the target named is ATP-binding cassette sub-family C member 3 (Homo sapiens, UniProt O15438). In words: Inhibition of human MRP3 overexpressed in Sf9 insect cell membrane vesicles assessed as uptake of [3H]-estradiol-17beta-D-glucuronide in presence of ATP and GSH measured after 10 mins by membrane vesicle transport assay. It is filed as ADME, cell-based.

Structures can show the parent of a compound that is named as a salt. Where only a bound is given, the exact number is not on record here.

ATP-binding cassette sub-family C member 3, sequence (O15438 whole entry): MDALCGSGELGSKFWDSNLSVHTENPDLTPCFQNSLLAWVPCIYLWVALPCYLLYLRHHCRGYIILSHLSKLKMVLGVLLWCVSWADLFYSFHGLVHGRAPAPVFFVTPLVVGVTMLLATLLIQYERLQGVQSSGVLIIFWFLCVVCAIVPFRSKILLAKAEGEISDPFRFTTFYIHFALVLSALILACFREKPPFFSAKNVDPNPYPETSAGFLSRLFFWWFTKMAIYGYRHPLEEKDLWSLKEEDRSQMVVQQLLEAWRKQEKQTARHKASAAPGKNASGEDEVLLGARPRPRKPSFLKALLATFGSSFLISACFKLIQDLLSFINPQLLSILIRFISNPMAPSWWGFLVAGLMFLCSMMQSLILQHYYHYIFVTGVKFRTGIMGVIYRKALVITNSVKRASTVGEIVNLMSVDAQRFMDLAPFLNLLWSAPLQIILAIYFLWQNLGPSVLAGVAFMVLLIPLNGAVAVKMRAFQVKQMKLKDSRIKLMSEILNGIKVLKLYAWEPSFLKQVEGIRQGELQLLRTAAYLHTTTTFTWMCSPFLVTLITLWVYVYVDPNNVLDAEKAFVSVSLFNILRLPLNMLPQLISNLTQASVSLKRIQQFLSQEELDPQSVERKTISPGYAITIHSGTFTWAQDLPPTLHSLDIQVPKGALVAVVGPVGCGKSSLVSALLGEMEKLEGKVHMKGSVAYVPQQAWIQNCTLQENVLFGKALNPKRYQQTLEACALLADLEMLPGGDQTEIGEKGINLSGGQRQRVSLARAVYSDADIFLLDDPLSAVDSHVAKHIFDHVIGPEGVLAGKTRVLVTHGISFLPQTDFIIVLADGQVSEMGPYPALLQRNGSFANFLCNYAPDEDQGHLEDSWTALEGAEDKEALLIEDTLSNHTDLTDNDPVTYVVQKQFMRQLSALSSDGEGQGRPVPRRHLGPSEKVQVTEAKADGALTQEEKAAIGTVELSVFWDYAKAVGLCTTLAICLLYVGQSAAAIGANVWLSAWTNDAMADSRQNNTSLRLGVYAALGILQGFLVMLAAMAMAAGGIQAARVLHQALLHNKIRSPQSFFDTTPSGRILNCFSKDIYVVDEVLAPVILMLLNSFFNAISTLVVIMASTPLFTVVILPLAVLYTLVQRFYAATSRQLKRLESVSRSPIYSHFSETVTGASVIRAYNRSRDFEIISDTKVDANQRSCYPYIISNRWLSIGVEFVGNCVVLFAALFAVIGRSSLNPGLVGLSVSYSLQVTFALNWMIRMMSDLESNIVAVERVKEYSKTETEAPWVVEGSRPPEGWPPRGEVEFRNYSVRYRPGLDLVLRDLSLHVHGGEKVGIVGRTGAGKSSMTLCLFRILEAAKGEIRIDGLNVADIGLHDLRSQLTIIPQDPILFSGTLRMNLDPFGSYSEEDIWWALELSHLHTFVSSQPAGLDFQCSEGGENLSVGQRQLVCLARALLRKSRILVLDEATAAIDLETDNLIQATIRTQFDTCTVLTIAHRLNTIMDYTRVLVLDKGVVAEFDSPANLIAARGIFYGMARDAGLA
ATP-binding cassette sub-family C member 2, sequence (Q92887 whole entry): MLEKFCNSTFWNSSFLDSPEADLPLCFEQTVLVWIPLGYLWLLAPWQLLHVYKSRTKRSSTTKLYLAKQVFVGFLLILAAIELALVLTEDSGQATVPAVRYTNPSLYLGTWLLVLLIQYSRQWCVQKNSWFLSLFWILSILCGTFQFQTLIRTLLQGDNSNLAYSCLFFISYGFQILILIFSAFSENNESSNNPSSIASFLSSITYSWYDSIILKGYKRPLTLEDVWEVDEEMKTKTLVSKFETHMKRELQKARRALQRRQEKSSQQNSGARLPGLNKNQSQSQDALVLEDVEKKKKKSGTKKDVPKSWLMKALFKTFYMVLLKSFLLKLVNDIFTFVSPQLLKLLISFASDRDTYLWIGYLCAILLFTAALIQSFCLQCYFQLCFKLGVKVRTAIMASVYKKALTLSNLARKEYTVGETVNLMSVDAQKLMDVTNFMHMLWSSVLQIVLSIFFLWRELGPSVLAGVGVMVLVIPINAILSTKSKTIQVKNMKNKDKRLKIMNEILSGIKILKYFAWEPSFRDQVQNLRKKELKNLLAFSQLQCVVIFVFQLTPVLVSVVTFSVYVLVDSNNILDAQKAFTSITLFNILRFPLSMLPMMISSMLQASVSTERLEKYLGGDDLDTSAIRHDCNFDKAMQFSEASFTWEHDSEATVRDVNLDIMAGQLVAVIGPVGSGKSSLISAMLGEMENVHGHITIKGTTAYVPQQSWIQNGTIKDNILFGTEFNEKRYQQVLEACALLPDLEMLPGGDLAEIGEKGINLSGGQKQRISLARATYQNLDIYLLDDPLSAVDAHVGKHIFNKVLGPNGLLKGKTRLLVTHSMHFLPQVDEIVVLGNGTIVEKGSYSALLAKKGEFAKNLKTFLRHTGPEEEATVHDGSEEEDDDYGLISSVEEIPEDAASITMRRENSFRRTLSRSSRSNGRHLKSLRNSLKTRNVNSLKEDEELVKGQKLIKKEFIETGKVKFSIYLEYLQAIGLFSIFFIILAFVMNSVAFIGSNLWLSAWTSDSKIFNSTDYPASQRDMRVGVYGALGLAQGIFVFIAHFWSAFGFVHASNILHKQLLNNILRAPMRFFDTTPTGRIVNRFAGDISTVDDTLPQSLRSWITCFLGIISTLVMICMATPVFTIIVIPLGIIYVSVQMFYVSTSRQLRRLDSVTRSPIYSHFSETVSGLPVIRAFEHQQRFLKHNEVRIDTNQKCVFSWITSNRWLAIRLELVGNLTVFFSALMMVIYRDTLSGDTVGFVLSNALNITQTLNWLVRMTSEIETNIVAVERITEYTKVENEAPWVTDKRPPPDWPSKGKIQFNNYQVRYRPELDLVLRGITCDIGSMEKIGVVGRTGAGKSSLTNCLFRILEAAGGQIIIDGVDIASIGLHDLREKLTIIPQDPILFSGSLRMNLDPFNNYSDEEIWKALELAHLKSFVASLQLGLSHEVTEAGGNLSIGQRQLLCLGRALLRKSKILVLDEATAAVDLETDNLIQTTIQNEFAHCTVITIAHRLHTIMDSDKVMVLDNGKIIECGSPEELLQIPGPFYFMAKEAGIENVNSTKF
Bile salt export pump, sequence (O95342 whole entry): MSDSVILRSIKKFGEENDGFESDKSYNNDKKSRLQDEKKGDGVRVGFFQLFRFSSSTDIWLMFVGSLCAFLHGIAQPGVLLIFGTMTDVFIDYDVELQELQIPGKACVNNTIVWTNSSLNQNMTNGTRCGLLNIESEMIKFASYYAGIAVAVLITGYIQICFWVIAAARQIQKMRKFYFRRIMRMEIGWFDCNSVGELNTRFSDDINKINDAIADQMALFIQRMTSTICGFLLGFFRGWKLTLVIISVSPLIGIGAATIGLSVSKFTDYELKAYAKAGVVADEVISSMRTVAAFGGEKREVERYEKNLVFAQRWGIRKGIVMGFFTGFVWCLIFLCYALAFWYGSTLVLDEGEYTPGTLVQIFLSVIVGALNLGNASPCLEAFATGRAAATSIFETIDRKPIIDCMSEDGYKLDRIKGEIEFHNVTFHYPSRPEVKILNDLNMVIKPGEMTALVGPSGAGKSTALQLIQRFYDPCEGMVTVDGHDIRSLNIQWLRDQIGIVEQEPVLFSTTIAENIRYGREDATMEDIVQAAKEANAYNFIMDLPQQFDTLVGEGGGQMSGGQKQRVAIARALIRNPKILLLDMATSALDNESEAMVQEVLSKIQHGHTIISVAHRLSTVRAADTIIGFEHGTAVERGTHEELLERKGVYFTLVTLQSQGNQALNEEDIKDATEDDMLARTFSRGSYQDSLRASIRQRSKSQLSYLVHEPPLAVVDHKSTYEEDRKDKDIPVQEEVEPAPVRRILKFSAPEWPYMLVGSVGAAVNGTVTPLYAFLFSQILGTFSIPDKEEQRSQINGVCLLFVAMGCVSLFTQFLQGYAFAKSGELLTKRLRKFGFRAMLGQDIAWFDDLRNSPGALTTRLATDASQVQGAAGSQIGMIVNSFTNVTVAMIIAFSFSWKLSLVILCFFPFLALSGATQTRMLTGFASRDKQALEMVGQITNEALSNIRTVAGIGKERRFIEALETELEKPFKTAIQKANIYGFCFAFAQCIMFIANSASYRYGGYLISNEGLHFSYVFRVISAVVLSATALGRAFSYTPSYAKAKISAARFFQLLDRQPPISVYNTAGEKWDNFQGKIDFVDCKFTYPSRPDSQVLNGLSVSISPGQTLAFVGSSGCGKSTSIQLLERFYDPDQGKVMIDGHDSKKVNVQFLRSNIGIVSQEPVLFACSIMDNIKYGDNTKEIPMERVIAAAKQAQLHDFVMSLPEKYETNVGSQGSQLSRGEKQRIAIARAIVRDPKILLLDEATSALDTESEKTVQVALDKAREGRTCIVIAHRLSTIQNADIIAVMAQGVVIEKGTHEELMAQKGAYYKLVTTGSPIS

Usually IC50 stands for the midpoint of a concentration-inhibition curve. As for `CC1(C)O[C@@H]2C[C@H]3[C@@H]4CCC5=CC(=O)C=C[C@]5(C)[C@@]4(F)[C@@H](O)C[C@]3(C)[C@]2(C(=O)CO)O1` [TRIAMCINOLONE ACETONIDE], the IC50 (in experiment [1]; at Bile salt export pump; in experiment [2]; in experiment [3]) was above 133 µM throughout.

As to `Cc1oncc1C(=O)Nc1ccc(C(F)(F)F)cc1` [LEFLUNOMIDE], the IC50 (in experiment [1]; at Bile salt export pump; in experiment [2]; in experiment [3]) was above 133 µM in each case.

Turning to `O=C(O[C@@H]1C[C@@H]2C[C@H]3C[C@H](C1)N2CC3=O)c1c[nH]c2ccccc12`, the IC50 (in experiment [1]; at Bile salt export pump; in experiment [2]; in experiment [3]) was above 133 µM throughout.

For the compound `CC(C)C[C@H](CN)CC(=O)O` [PREGABALIN], the IC50 (in experiment [1]; at Bile salt export pump; in experiment [2]; in experiment [3]) was above 133 µM each time.

For the compound `CC(C)(C)NC[C@H](O)COc1nsnc1N1CCOCC1` [TIMOLOL], the IC50 (in experiment [1]; at Bile salt export pump; in experiment [2]; in experiment [3]) was above 133 µM each time.

Turning to `CN1CCC(=C2c3ccccc3CC(=O)c3sccc32)CC1` [KETOTIFEN FUMARATE], the IC50 (in experiment [1]; at Bile salt export pump; in experiment [2]; in experiment [3]) was above 133 µM in each case.

As for `Cc1c(C(=O)NN2CCCCC2)nn(-c2ccc(Cl)cc2Cl)c1-c1ccc(Cl)cc1` [RIMONABANT], the IC50 in experiment [1] was above 133 µM; at Bile salt export pump it was 25 µM; in experiment [2], above 133 µM; in experiment [3], above 133 µM.

`C[C@H]1COc2c(C3(N)CC3)c(F)cc3c(=O)c(C(=O)O)cn1c23` [PAZUFLOXACIN]: the IC50 (in experiment [1]; at Bile salt export pump; in experiment [2]; in experiment [3]) was above 133 µM in each case.

For `Nc1nc2c(ncn2COCCO)c(=O)[nH]1` [ACYCLOVIR], the IC50 (in experiment [1]; on Bile salt export pump; in experiment [2]; in experiment [3]) was above 133 µM throughout.

Regarding `O=C(O)CCCc1ccc(N(CCCl)CCCl)cc1` [CHLORAMBUCIL], the IC50 (in experiment [1]; on Bile salt export pump; in experiment [2]; in experiment [3]) was above 133 µM throughout.

Turning to `O=C(NCCO[N+](=O)[O-])c1cccnc1` [NICORANDIL], the IC50 (in experiment [1]; on Bile salt export pump; in experiment [2]; in experiment [3]) was above 133 µM in each case.

On to `CCOc1ccc(NC(C)=O)cc1` [PHENACETIN], for which the IC50 (in experiment [1]; on Bile salt export pump; in experiment [2]; in experiment [3]) was above 133 µM throughout.

As for `NC(=O)CC[C@@H]1NC(=O)[C@H](Cc2ccccc2)NC(=O)[C@H](Cc2ccc(O)cc2)NC(=O)CCSSC[C@@H](C(=O)N2CCC[C@H]2C(=O)N[C@H](CCCN=C(N)N)C(=O)NCC(N)=O)NC(=O)[C@H](CC(N)=O)NC1=O` [DESMOPRESSIN ACETATE], the IC50 (in experiment [1]; at Bile salt export pump; in experiment [2]; in experiment [3]) was above 133 µM throughout.

In the case of `CC(C)Cn1cnc2c(N)nc3ccccc3c21` [IMIQUIMOD], the IC50 (in experiment [1]; on Bile salt export pump; in experiment [2]; in experiment [3]) was above 133 µM throughout.

`Nc1nc(Cl)nc2c1ncn2[C@@H]1O[C@H](CO)[C@@H](O)[C@@H]1F` [CLOFARABINE]: the IC50 (in experiment [1]; on Bile salt export pump; in experiment [2]; in experiment [3]) was above 133 µM each time.

As for `C=CC1=C(C(=O)O)N2C(=O)[C@@H](NC(=O)/C(=N\OCC(=O)O)c3csc(N)n3)[C@H]2SC1` [CEFIXIME], the IC50 in experiment [1] was above 133 µM; on Bile salt export pump, above 133 µM; in experiment [2] it was 89.4 µM; in experiment [3], above 133 µM.

For the compound `NC(=O)N1c2ccccc2CC(=O)c2ccccc21` [OXCARBAZEPINE], the IC50 (in experiment [1]; on Bile salt export pump; in experiment [2]; in experiment [3]) was above 133 µM each time.

For `N=C(N)c1ccc(OCCCCCOc2ccc(C(=N)N)cc2)cc1` [PENTAMIDINE], the IC50 (in experiment [1]; on Bile salt export pump; in experiment [2]; in experiment [3]) was above 133 µM in each case.

With `CC(C)(C)c1ccc(C(=O)CCCN2CCC(OC(c3ccccc3)c3ccccc3)CC2)cc1` [EBASTINE], the IC50 (in experiment [1]; at Bile salt export pump; in experiment [2]; in experiment [3]) was above 133 µM in each case.

`C[C@]12CC[C@H]3[C@@H](CC[C@@]45O[C@@H]4C(O)=C(C#N)C[C@]35C)[C@@H]1CC[C@@H]2O` [TRILOSTANE]: the IC50 (in experiment [1]; at Bile salt export pump; in experiment [2]; in experiment [3]) was above 133 µM throughout.

As for `Cc1cccc(Nc2ccccc2C(=O)O)c1C` [MEFENAMIC ACID], the IC50 (in experiment [1]; at Bile salt export pump; in experiment [2]; in experiment [3]) was above 133 µM in each case.

`C[C@H]1O[C@@H](O[C@H]2[C@@H](O)C[C@H](O[C@H]3[C@@H](O)C[C@H](O[C@H]4CC[C@@]5(C)[C@H](CC[C@@H]6[C@@H]5CC[C@]5(C)[C@@H](C7=CC(=O)OC7)CC[C@]65O)C4)O[C@@H]3C)O[C@@H]2C)C[C@H](O)[C@@H]1O` [DIGITOXIN]: the IC50 in experiment [1] is above 133 µM; at Bile salt export pump, 31 µM; in experiment [2], above 133 µM; in experiment [3] it was above 133 µM.

In the case of `CN(C(=O)c1c(O)c2ccccc2n(C)c1=O)c1ccccc1` [ROQUINIMEX], the IC50 (in experiment [1]; on Bile salt export pump; in experiment [2]; in experiment [3]) was above 133 µM each time.

On to `CC(C)c1ccc2oc3nc(N)c(C(=O)O)cc3c(=O)c2c1` [AMLEXANOX], for which the IC50 in experiment [1] is 2.2 µM; on Bile salt export pump, 104 µM; in experiment [2] it was above 133 µM; in experiment [3] it was above 133 µM.

With `CCC1(c2ccccc2)C(=O)NCNC1=O` [PRIMIDONE], the IC50 (in experiment [1]; on Bile salt export pump; in experiment [2]; in experiment [3]) was above 133 µM throughout.

Take `CC1(C)O[C@@H]2C[C@H]3[C@@H]4C[C@H](F)C5=CC(=O)C=C[C@]5(C)[C@H]4[C@@H](O)C[C@]3(C)[C@]2(C(=O)CO)O1` [FLUNISOLIDE]: the IC50 (in experiment [1]; at Bile salt export pump; in experiment [2]; in experiment [3]) was above 133 µM in each case.

Regarding `Cc1cc(NC(=O)C2=C(O)c3ccccc3S(=O)(=O)N2C)no1` [ISOXICAM], the IC50 (in experiment [1]; at Bile salt export pump; in experiment [2]; in experiment [3]) was above 133 µM each time.

Consider `[H]/N=C(/N)N/C(=N/[H])NCCc1ccccc1` [PHENFORMIN], for which the IC50 (in experiment [1]; at Bile salt export pump; in experiment [2]; in experiment [3]) was above 133 µM throughout.

With `CCOC(=O)C1=C(COCCN)NC(C)=C(C(=O)OC)C1c1ccccc1Cl` (stereo not given) [AMLODIPINE], the IC50 (in experiment [1]; on Bile salt export pump; in experiment [2]; in experiment [3]) was above 133 µM each time.

As to `COC[C@@H](NC(C)=O)C(=O)NCc1ccccc1` [LACOSAMIDE], the IC50 (in experiment [1]; at Bile salt export pump; in experiment [2]; in experiment [3]) was above 133 µM each time.
